According to patent publication US11000033B2, “Ketone or oxime compound, and herbicide” (NISSAN CHEMICAL CORPORATION, priority 2014, dated 2021):

What was measured:
Assay type in all cases: in vivo
[1] = tested on: Galium spurium; test: Test Example 5: herbicidal effect by foliage application, plastic box (symbol Q); conditions: 320 g/ha, 3 weeks after application
Procedure, shortened: (§1)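 Seeds were sown in sterilized diluvial soil, covered with about 1.5 cm of soil and grown 14 days in a greenhouse at 25° C. to 30° C. An emulsifiable formulation diluted in water to a set rate was sprayed over foliage, and injury was scored 3 weeks later.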

[2] = tested on: Scirpus juncoides; test: Test Example 1: herbicidal activity, application before weed generation in submerged conditions (symbol B); conditions: application herbicide amount 320 g/ha
Procedure, shortened: (§2)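 0–5 visual score, 3 wk post-application. Submerged pots, alluvial soil, water 4 cm; seeds sown mixed, rice at 2.5 leaves transplanted. Emulsion diluted to predetermined dose, applied to water surface at sowing. 25–30 °C greenhouse.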

[3] = tested on: Echinochloa crus-galli var. crus-galli; test: Test Example 3: herbicidal effect by foliage application, Wagner pot (symbol H); conditions: application herbicide amount 320 g/ha
Procedure, shortened: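 Weeds and rice were sown in alluvial soil under 0.1–0.5 cm of standing water and grown for 14 days in a 25–30 °C greenhouse. An emulsion of the compound, diluted in water to a set dose, was sprayed evenly onto the foliage. Effect was scored against fixed criteria 3 weeks after treatment.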

[4] = tested on: Amaranthus retroflexus; test: Test Example 4: herbicidal effect by soil treatment (symbol N); conditions: 320 g/ha
Procedure, shortened: (§3)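 Seeds were sown in sterilized diluvial soil, covered with about 1.5 cm of soil, and the soil surface was sprayed with a water-diluted emulsion of the compound at a predetermined rate. Plants grew in a greenhouse at 25° C. to 30° C.; effects were scored visually 3 weeks after application.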

[5] = tested on: Abutilon theophrasti; test: Test Example 5: herbicidal effect by foliage application, plastic box (symbol M); conditions: 320 g/ha, 3 weeks after application
Procedure, shortened: as §1

[6] = tested on: soybean; test: Test Example 5: effect on crop by foliage application, plastic box (symbol d); conditions: 320 g/ha, 3 weeks after application
Procedure, shortened: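 Seeds were sown in spots in sterilized diluvial soil held in a plastic box 21 cm × 13 cm × 7 cm deep, covered with about 1.5 cm of soil, and grown in a greenhouse at 25° C. to 30° C.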

[7] = tested on: beet; test: Test Example 4: effect on crop by soil treatment (symbol f); conditions: 320 g/ha
Procedure, shortened: (§4)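 Grown at 25° C. to 30° C. in a greenhouse, the crops came from seed sown spot-wise in sterilized diluvial soil under roughly 1.5 cm of covering soil.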

[8] = tested on: Setaria viridis; test: Test Example 4: herbicidal effect by soil treatment (symbol G); conditions: 320 g/ha
Procedure, shortened: as §3

[9] = tested on: Chenopodium album; test: Test Example 4: herbicidal effect by soil treatment (symbol O); conditions: 320 g/ha
Procedure, shortened: as §3

[10] = tested on: Chenopodium album; test: Test Example 5: herbicidal effect by foliage application, plastic box (symbol O); conditions: 320 g/ha, 3 weeks after application
Procedure, shortened: as §1

[11] = tested on: Lolium multiflorum Lam.; test: Test Example 4: herbicidal effect by soil treatment (symbol K); conditions: 320 g/ha
Procedure, shortened: as §3

[12] = tested on: wheat; test: Test Example 4: effect on crop by soil treatment (symbol e); conditions: 320 g/ha
Procedure, shortened: as §4

[13] = tested on: soybean; test: Test Example 4: effect on crop by soil treatment (symbol d); conditions: 320 g/ha
Procedure, shortened: as §4

[14] = tested on: Echinochloa crus-galli var. crus-galli; test: Test Example 5: herbicidal effect by foliage application, plastic box (symbol H); conditions: 320 g/ha, 3 weeks after application
Procedure, shortened: as §1

[15] = tested on: Avena fatua; test: Test Example 4: herbicidal effect by soil treatment (symbol I); conditions: 320 g/ha
Procedure, shortened: as §3

[16] = tested on: Setaria viridis; test: Test Example 5: herbicidal effect by foliage application, plastic box (symbol G); conditions: 320 g/ha, 3 weeks after application
Procedure, shortened: as §1

[17] = tested on: Amaranthus retroflexus; test: Test Example 5: herbicidal effect by foliage application, plastic box (symbol N); conditions: 320 g/ha, 3 weeks after application
Procedure, shortened: as §1

[18] = tested on: Monochoria vaginalis; test: Test Example 1: herbicidal activity, application before weed generation in submerged conditions (symbol C); conditions: application herbicide amount 320 g/ha
Procedure, shortened: as §2

| Compound | Herbicidal effect grade, B: Scirpus juncoides [2] | herbicidal effect on H (Echinochloa crus-galli var. crus-galli), grade 0-5 [3] | N: Amaranthus retroflexus, herbicidal effect grade [4] | f: beet, effect grade on crop [7] | G: Setaria viridis, herbicidal effect grade [8] | O: Chenopodium album, herbicidal effect grade [9] | K: Lolium multiflorum Lam., herbicidal effect grade [11] | e: wheat, effect grade on crop [12] | d: soybean, effect grade on crop [13] | I: Avena fatua, herbicidal effect grade [15] | Herbicidal effect grade, C: Monochoria vaginalis [18] | Q: Galium spurium, herbicidal effect grade [1] | M: Abutilon theophrasti, herbicidal effect grade [5] | d: soybean, effect on crop grade [6] | O: Chenopodium album, herbicidal effect grade [10] | H: Echinochloa crus-galli var. crus-galli, herbicidal effect grade [14] | G: Setaria viridis, herbicidal effect grade [16] | N: Amaranthus retroflexus, herbicidal effect grade [17] | other results |
| --- | --- | --- | --- | --- | --- | --- | --- | --- | --- | --- | --- | --- | --- | --- | --- | --- | --- | --- | --- |
| CON=C(C)CC1CC(OC(=O)N2CCN(C)CC2)=C(c2c(C)cc(C)cc2C)C1=O (stereo not drawn) [1-152] | 0 (Herbicidal ratio of 5% or lower (almost no effect)) | 5 (Herbicidal ratio of 90% or more (almost completely withered)) | 0 (Herbicidal ratio of 5% or lower (almost no effect)) | 0 (Herbicidal ratio of 5% or lower (almost no effect)) | 0 (Herbicidal ratio of 5% or lower (almost no effect)) | 0 (Herbicidal ratio of 5% or lower (almost no effect)) | 2 (Herbicidal ratio of 20% or higher and lower than 40%) | 0 (Herbicidal ratio of 5% or lower (almost no effect)) | 0 (Herbicidal ratio of 5% or lower (almost no effect)) | 0 (Herbicidal ratio of 5% or lower (almost no effect)) | 0 (Herbicidal ratio of 5% or lower (almost no effect)) | – | – | – | – | – | – | – | Q: Galium spurium, herbicidal effect (criteria 0-5) [1]: 0 (Herbicidal ratio of 5% or lower (almost no effect)); M: Abutilon theophrasti, herbicidal effect (criteria 0-5) [5]: 4 (Herbicidal ratio of 70% or higher and lower than 90%); d: soybean, effect on crop (criteria 0-5) [6]: 1 (Herbicidal ratio of 5% or higher and lower than 20%); O: Chenopodium album, herbicidal effect (criteria 0-5) [10]: 0 (Herbicidal ratio of 5% or lower (almost no effect)); H: Echinochloa crus-galli var. crus-galli, herbicidal effect (criteria 0-5) [14]: 5 (Herbicidal ratio of 90% or more (almost completely withered)); G: Setaria viridis, herbicidal effect (criteria 0-5) [16]: 5 (Herbicidal ratio of 90% or more (almost completely withered)); N: Amaranthus retroflexus, herbicidal effect (criteria 0-5) [17]: 3 (Herbicidal ratio of 40% or higher and lower than 70%) |
| CON=C(C)CC1CC(OC(=O)Cc2ccc(OC)cc2)=C(c2c(C)cc(C)cc2C)C1=O (stereo not drawn) [1-156] | 5 (Herbicidal ratio of 90% or more (almost completely withered)) | 5 (Herbicidal ratio of 90% or more (almost completely withered)) | 5 (Herbicidal ratio of 90% or more (almost completely withered)) | 1 (Herbicidal ratio of 5% or higher and lower than 20%) | 5 (Herbicidal ratio of 90% or more (almost completely withered)) | 0 (Herbicidal ratio of 5% or lower (almost no effect)) | 5 (Herbicidal ratio of 90% or more (almost completely withered)) | 5 (Herbicidal ratio of 90% or more (almost completely withered)) | 0 (Herbicidal ratio of 5% or lower (almost no effect)) | 4 (Herbicidal ratio of 70% or higher and lower than 90%) | 1 (Herbicidal ratio of 5% or higher and lower than 20%) | 3 (Herbicidal ratio of 40% or higher and lower than 70%) | 4 (Herbicidal ratio of 70% or higher and lower than 90%) | 3 (Herbicidal ratio of 40% or higher and lower than 70%) | 2 (Herbicidal ratio of 20% or higher and lower than 40%) | 5 (Herbicidal ratio of 90% or more (almost completely withered)) | 5 (Herbicidal ratio of 90% or more (almost completely withered)) | 3 (Herbicidal ratio of 40% or higher and lower than 70%) | – |
| CON=C(C)CC1CC(OS(=O)(=O)c2ccc(C)cc2)=C(c2c(C)cc(C)cc2C)C1=O (stereo not drawn) [1-161] | 4 (Herbicidal ratio of 70% or higher and lower than 90%) | 4 (Herbicidal ratio of 70% or higher and lower than 90%) | 0 (Herbicidal ratio of 5% or lower (almost no effect)) | 0 (Herbicidal ratio of 5% or lower (almost no effect)) | 0 (Herbicidal ratio of 5% or lower (almost no effect)) | 0 (Herbicidal ratio of 5% or lower (almost no effect)) | 3 (Herbicidal ratio of 40% or higher and lower than 70%) | 3 (Herbicidal ratio of 40% or higher and lower than 70%) | 0 (Herbicidal ratio of 5% or lower (almost no effect)) | 0 (Herbicidal ratio of 5% or lower (almost no effect)) | 1 (Herbicidal ratio of 5% or higher and lower than 20%) | 0 (Herbicidal ratio of 5% or lower (almost no effect)) | 0 (Herbicidal ratio of 5% or lower (almost no effect)) | 0 (Herbicidal ratio of 5% or lower (almost no effect)) | 0 (Herbicidal ratio of 5% or lower (almost no effect)) | 4 (Herbicidal ratio of 70% or higher and lower than 90%) | 0 (Herbicidal ratio of 5% or lower (almost no effect)) | 0 (Herbicidal ratio of 5% or lower (almost no effect)) | – |
| CON=C(C)CC1CC(OC(=O)N(C)c2ccccc2)=C(c2c(C)cc(C)cc2C)C1=O (stereo not drawn) [1-159] | 0 (Herbicidal ratio of 5% or lower (almost no effect)) | 4 (Herbicidal ratio of 70% or higher and lower than 90%) | 0 (Herbicidal ratio of 5% or lower (almost no effect)) | 0 (Herbicidal ratio of 5% or lower (almost no effect)) | 3 (Herbicidal ratio of 40% or higher and lower than 70%) | 0 (Herbicidal ratio of 5% or lower (almost no effect)) | 5 (Herbicidal ratio of 90% or more (almost completely withered)) | 1 (Herbicidal ratio of 5% or higher and lower than 20%) | 0 (Herbicidal ratio of 5% or lower (almost no effect)) | 0 (Herbicidal ratio of 5% or lower (almost no effect)) | 0 (Herbicidal ratio of 5% or lower (almost no effect)) | 0 (Herbicidal ratio of 5% or lower (almost no effect)) | 4 (Herbicidal ratio of 70% or higher and lower than 90%) | 1 (Herbicidal ratio of 5% or higher and lower than 20%) | 0 (Herbicidal ratio of 5% or lower (almost no effect)) | 4 (Herbicidal ratio of 70% or higher and lower than 90%) | 1 (Herbicidal ratio of 5% or higher and lower than 20%) | 3 (Herbicidal ratio of 40% or higher and lower than 70%) | – |
